Assay results published in US20100297038A1, “Benzimidazole Derivatives And Their Use As Cooling Agents” (Givaudan S.A., priority 2008, published 2010).

Assay: Cooling intensity: panelists taste aqueous solutions, compared with menthol at 2 ppm
Assay type: in vivo, human
Conditions: tasted by a small group of panelists

Compound	Concentration with a cooling intensity similar to or slightly higher than that of a solution of menthol at 2 ppm
Cc1nc2ccccc2n1CCc1ccccc1 [Example 1, 2-methyl-1-phenethyl-1H-benzo[d]imidazole]	0.03 ppm
COc1ccc(CCn2c(C)nc3ccccc32)cc1 [Example 2, 1-(4-methoxyphenethyl)-2-methyl-1H-benzo[d]imidazole]	0.1 ppm
CC1CCC(C(C)C)C(O)C1 (stereo not shown) [I-Menthol, I-menthol]	2.0 ppm
CCNC(=O)C1CC(C)CCC1C(C)C (stereo not shown) [WS-3, N-ethyl p-menthanecarboxamide]	1.5 ppm
